Experimental data reported in patent US20250340529A1, “Heterocyclic Compounds as Immunomodulators of PD-L1 Interactions” (Ascletis BioScience Co., Ltd, priority 2021, published 2025).

Legend:
[1] = system: Hep3B-OS8-hPDL1 cells and CD3+ T cells; test: Hep3B-OS8-hPDL1 and T cells co-culture assay (IFN-γ by ELISA); format: cell-based; conditions: Homo sapiens, T-cell, 72 hours, read-out: Tumor and T Cell EC50 (nm)
Description: a. Hep3B-OS8-hPDL1 and T Cells Co-Culture Assay
• 1. Hep3B-OS8-hPDL1 cells were cultured in 1640 medium supplemented with 10% fetal bovine serum, 1% penicillin and streptomycin, in which 100 μg/mL G418 and Hygromycin B were also added. • 2. Hep3B-OS8-hPDL1 cells were harvested and treated with 10 μg/mL mitomycin C at 37° C. for 1.5 h, and the cells were then washed thoroughly with PBS for four times. • 3. Cells were re-suspended with RPMI 1640 medium containing 10% FBS and the cell density was adjusted to 5E5 cells/mL. • 4. Cells were seeded into 96-well flat bottom plate (2.5E4 cells/50 μL/well). b. CD3+ T Cells Isolation (30 mL Blood) • 5. The human blood sample from an individual donor is diluted by the same volume of sterile PBS, for instance add 25 mL sterile PBS into 25 mL fresh whole blood and mix sufficiently by gentle shake. • 6. Transfer 15 mL Lymphoprep medium into a new 50 mL centrifuge tube. • 7. Add the diluted blood sample as soft as possible onto the surface of the Ficoll medium to make sure there is a clear dividing line between the two liquids, and the volume ratio between Ficoll and diluted blood (30 mL) is 1:2. • 8. Move the tube gently to centrifuge, at 1000×g, 25 min, 20° C., with the acceleration (5) and Min deceleration (0) settings during the centrifugation. • 9. Four interfaces in all could be observed after the centrifugation, which are layers of plasma, mononuclear cells, the Ficoll medium and RBCs from top to bottom, and move the tube as gently as possible so as keep the four interfaces separated. Absorb and transfer the second layer of mononuclear cells into another new sterile centrifuge tube carefully, and absorb certain volume of plasma instead of the Ficoll medium if inevitable. • 10. Add sterile PBS of the three times the volume of PBMCs in the tube with PBMC. • 11. Wash the cells twice with 5-10 mL PBS before cell counting with cytometer. Centrifuge at 350×g, 10 min, 20° C. With the acceleration (5) and deceleration (5) settings during the centrifugation. • 12. Resuspend the cells with recommended medium and adjust the density of the PBMCs to the final concentration of 5E7 cells/mL. • 13. Isolate CD3+ T cells with EasySep™ Human T Cell Isolation Kit (STEMCELL Technologies #17951), and the cells were seeded into 96-well flat bottom plate (5E4 cells/100 μL/well). c. Compounds solutions preparation • 14. Prepare the Compounds dilutions in RPMI 1640 medium with 10% FBS according to the Layout. 15. Add compounds into each well in a volume of 50 μL. {3 compounds (GLC01-258, GLC01-269, GLC01-465) in 7 concentrations (0.03, 0.1, 0.3, 1, 3, 10 and 30 μM) and 6 compounds (GLC01-411, GLC01-292, GLC01-445, GLC01-475, GLC01-470 and GLC01-468) in the same concentration (1 μM)}. • 16. […]

[2] = biological target: extracellular domains of PD-L1 (Homo sapiens (Human), UniProt Q9NZQ7); test: PD-L1 dimerization (biochemical protein-protein interaction assay); conditions: PDL1-Eu and PDL1-A2, 25° C., 120 min
Description: Compounds were tested in biochemical protein-protein interaction assays to determine if they can specifically dimerize the extracellular domains of PD-L1. • (1) Dilute cpd 1:3 in succession in DMSO for each column for 10±0 pts (refer to dilution plate map) • (2) Transfer 0.2 μL cpds solution in each row to 384 assay plate using Echo, each column containing 2 replicates (refer to assay plate map). • (3) Add 20 μL prepared mixture include PDL1-Eu and PDL1-A2 solution to assay plate, centrifuge at 1000 rpm for 1 min. • (4) Incubate at 25° C. for 120 min. • (5) Read fluorescence signal on Envision 2104 plate reader. • (6) Read the Ratio (665 nm/615 nm) signal on Envision. • (7) Analyze the raw data using the equation (V. Data analysis)

Sequence of extracellular domains of PD-L1 (Q9NZQ7 19-238): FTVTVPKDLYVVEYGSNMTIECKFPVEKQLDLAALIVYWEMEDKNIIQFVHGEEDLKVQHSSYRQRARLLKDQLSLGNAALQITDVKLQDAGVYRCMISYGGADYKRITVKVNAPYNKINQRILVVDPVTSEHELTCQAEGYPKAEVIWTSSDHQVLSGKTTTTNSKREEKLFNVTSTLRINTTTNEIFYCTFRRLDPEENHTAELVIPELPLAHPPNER

| EC50 [1] | EC50 [2] | SMILES |
| --- | --- | --- |
| 325 nM | – | O=C1COc2cc(-c3cccc(-c4cccc(-c5ccc6c(c5)OCC(=O)N6C[C@H]5CCCN5)c4Cl)c3Cl)ccc2N1C[C@H]1CCCN1 [Compound 529] |
| 1.2 nM | 77.9 nM | O=C(O)[C@H](CO)NCCN1C(=O)COc2cc(-c3cccc(-c4cccc(-c5ccc6c(c5)OCC(=O)N6CCN[C@@H](CO)C(=O)O)c4Cl)c3Cl)ccc21 [Compound 465] |
